According to ChEMBL document CHEMBL1135699, “Designing non-peptide peptidomimetics in the 21st century: inhibitors targeting conformational ensembles” (J Med Chem, 2002):
Non-standard residues stand in square brackets, D forms with d. Residues, ends and D or L forms follow the SMILES beside them. *: point of attachment. Sta = CC(C)C[C@H](N)[C@@H](O)CC(=O)O; NHIsopentyl = CC(C)CCN*; X1 = CC(C)CCOC(=O)*

Legend:
Pepsin A [1] = target: Pepsin A (Sus scrofa, UniProt P00791); assay: Inhibitory concentration against porcine pepsin
Sequence of Pepsin A (Sus scrofa, UniProt P00791) (P00791 whole entry): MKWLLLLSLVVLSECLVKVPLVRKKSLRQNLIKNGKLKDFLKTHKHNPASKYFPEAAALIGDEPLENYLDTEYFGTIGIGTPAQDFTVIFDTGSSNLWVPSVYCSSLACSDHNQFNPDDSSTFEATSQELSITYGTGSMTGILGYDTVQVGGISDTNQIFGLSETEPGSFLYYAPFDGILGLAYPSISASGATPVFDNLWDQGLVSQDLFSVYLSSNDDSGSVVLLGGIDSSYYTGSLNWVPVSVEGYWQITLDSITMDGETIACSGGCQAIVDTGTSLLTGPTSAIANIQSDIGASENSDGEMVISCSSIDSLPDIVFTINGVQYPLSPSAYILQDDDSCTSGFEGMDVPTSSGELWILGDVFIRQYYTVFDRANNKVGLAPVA

Rhizopuspepsin = target: T1, Rhizopuspepsin (Rhizopus microsporus var. chinensis, UniProt P06026); assay: Inhibitory concentration against Rhizopus chinensis pepsin; type: functional
T1 sequence (P06026 whole entry): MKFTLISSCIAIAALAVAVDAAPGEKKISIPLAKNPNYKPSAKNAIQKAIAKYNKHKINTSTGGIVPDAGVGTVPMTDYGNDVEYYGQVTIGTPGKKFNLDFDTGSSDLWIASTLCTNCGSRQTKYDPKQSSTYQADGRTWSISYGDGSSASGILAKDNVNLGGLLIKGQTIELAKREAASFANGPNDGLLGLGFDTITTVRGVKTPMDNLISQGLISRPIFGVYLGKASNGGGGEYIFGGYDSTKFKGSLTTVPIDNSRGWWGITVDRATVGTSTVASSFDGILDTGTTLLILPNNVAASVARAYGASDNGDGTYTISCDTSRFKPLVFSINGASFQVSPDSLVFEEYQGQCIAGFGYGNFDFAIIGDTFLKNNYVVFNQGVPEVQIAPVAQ

Pepsin A [2] = target: Pepsin A (Homo sapiens, UniProt P0DJD9); assay: Inhibition of pepsin
Sequence of Pepsin A (Homo sapiens, UniProt P0DJD9) (P0DJD9 whole entry): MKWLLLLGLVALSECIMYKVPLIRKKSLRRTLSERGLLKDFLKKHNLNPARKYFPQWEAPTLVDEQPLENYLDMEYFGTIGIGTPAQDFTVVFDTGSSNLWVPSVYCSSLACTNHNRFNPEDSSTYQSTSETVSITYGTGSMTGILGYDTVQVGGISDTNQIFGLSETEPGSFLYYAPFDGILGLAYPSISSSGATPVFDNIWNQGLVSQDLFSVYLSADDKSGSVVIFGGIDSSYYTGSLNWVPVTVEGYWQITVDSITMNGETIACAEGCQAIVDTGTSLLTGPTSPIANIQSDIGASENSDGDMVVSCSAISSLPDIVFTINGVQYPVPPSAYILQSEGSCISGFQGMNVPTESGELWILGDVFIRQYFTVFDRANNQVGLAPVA

SMILES | Ki (Pepsin A [2]) | other results
Brc1ccc(CO[C@H]2CNCC[C@@H]2c2ccccc2)cc1 | – | IC50 (Pepsin A [1]): 0.2 µM
O=C(COc1ccc([C@H]2CCNC[C@@H]2OCc2ccc(Br)cc2)cc1)c1ccc2ccccc2c1 | – | IC50 (Rhizopuspepsin): 2 µM
CC(C)CCNC(=O)[C@H](C)NC(=O)C[C@H](O)[C@H](CC(C)C)NC(=O)[C@@H](NC(=O)[C@@H](NC(=O)OCCC(C)C)C(C)C)C(C)C (X1-VV[Sta]A-NHIsopentyl) | 0.0001 µM | –

Continued, in another order:

Ki (Pepsin A [2]) | SMILES | other results
1.2 µM | CC(C)CCNC(=O)[C@H](C)NC(=O)C[C@](C)(O)[C@H](CC(C)C)NC(=O)[C@@H](NC(=O)[C@@H](NC(=O)OCCC(C)C)C(C)C)C(C)C | –
0.0015 µM | CC(C)CCNC(=O)[C@H](C)NC(=O)C[C@@](C)(O)[C@H](CC(C)C)NC(=O)[C@@H](NC(=O)[C@@H](NC(=O)OCCC(C)C)C(C)C)C(C)C | –
